Assays:
[1] = target: T1, Amine oxidase [flavin-containing] B (Homo sapiens, UniProt P27338); experiment: Inhibition of human MAO-B expressed in baculovirus infected BT1 cells microsome fraction assessed as residual enzyme activity at 4 times of IC50 concentration for 15 mins by fluorescence spectrometry relative to control; settings: 0.25 h
T1 sequence (P27338 whole entry): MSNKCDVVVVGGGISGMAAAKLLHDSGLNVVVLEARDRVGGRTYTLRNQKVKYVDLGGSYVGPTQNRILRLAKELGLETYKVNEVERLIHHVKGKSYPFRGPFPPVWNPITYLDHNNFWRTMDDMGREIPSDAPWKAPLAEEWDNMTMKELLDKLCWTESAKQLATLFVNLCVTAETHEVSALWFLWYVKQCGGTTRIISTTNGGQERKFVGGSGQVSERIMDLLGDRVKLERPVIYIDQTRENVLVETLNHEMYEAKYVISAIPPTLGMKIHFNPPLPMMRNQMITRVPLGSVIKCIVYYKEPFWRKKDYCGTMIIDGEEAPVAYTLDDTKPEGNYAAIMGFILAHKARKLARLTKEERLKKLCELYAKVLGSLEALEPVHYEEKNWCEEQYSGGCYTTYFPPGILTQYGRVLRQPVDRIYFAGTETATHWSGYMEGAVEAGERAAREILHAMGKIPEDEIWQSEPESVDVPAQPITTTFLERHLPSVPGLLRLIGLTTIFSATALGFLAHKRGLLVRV

[2] = Cytotoxicity against human HeLa cells assessed as viable cells at 1 uM by MTT assay; type: cell-based; settings: read-out: Activity
[3] = Cytotoxicity against human HeLa cells assessed as viable cells at 10 uM by MTT assay; type: cell-based; settings: read-out: Activity
[4] = target: T1, Amine oxidase [flavin-containing] B; experiment: Reversible inhibition of human MAO-B expressed in baculovirus infected BT1 cells microsome fraction assessed as enzyme activity recovered at 10 times of IC50 concentration preincubated for 30 mins followed by dilution to 0.1 times of IC50 concentration by fluorescence spectrometry; set-up: scale not given: the % may be the effect or the level left
Homo sapiens = organism: Homo sapiens; experiment: Selectivity index, ratio of IC50 for human MAO-A to IC50 for human MAO-B
[5] = target: T2, Amine oxidase [flavin-containing] A (Homo sapiens, UniProt P21397); experiment: Inhibition of human MAO-A expressed in baculovirus infected BT1 cells microsome fraction by fluorescence spectrometry
T2 sequence (P21397 whole entry): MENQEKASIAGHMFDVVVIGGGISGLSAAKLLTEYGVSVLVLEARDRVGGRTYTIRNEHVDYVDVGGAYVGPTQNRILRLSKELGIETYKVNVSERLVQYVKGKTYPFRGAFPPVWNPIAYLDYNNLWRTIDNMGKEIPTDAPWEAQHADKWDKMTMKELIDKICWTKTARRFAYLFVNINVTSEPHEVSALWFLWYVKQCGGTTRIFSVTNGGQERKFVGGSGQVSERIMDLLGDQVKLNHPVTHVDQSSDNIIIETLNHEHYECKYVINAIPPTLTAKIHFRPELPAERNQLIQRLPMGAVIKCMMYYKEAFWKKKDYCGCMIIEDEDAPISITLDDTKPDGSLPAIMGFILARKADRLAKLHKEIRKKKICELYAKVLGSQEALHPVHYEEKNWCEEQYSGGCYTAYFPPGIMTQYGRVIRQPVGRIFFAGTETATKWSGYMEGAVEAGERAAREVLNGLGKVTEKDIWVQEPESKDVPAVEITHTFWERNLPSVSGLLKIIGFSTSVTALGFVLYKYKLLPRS

[6] = target: T1, Amine oxidase [flavin-containing] B; experiment: Inhibition of human MAO-B expressed in baculovirus infected BT1 cells microsome fraction by fluorescence spectrometry
[7] = target: T1, Amine oxidase [flavin-containing] B; experiment: Reversible inhibition of human MAO-B expressed in baculovirus infected BT1 cells microsome fraction assessed as residual enzyme activity at 4 times of IC50 concentration preincubated for 15 mins followed by dialysis for 24 hrs by fluorescence spectrometry relative to control
[8] = target: T1, Amine oxidase [flavin-containing] B; experiment: Reversible inhibition of human MAO-B expressed in baculovirus infected BT1 cells microsome fraction assessed as enzyme activity recovered at 100 times of IC50 concentration preincubated for 30 mins followed by dilution to IC50 concentration by fluorescence spectrometry; set-up: scale not given: the % may be the effect or the level left
[9] = target: T2, Amine oxidase [flavin-containing] A; experiment: Reversible inhibition of human MAO-A expressed in baculovirus infected BT1 cells microsome fraction assessed as enzyme activity recovered at 100 times of IC50 concentration preincubated for 30 mins followed by dilution to IC50 concentration by fluorescence spectrometry; set-up: scale not given: the % may be the effect or the level left
[10] = Cytotoxicity against human HeLa cells by MTT assay; type: cell-based
[11] = target: T2, Amine oxidase [flavin-containing] A; experiment: Reversible inhibition of human MAO-A expressed in baculovirus infected BT1 cells microsome fraction assessed as enzyme activity recovered at 10 times of IC50 concentration preincubated for 30 mins followed by dilution to 0.1 times of IC50 concentration by fluorescence spectrometry; set-up: scale not given: the % may be the effect or the level left
[12] = target: T2, Amine oxidase [flavin-containing] A; experiment: Irreversible inhibition of human MAO-A expressed in baculovirus infected BT1 cells microsome fraction assessed as enzyme activity recovered at 10 times of IC50 concentration preincubated for 30 mins followed by dilution to 0.1 times of IC50 concentration by fluorescence spectrometry; set-up: scale not given: the % may be the effect or the level left

Row | SMILES | Ratio IC50 (Homo sapiens) | IC50 [5] [µM] | IC50 [6] [µM] | also measured
1 | Cc1ccc(C(=O)/C=C/c2ccc(F)c(Br)c2)s1 | 240 | 16.1 | 0.067 | Activity [1]: 18%; viability at 1 µM [2]: 104%; viability at 10 µM [3]: 95.7%; Activity [4]: 26%; Activity [7]: 83%; Activity [8]: 5%
2 | O=C(/C=C/c1cccc(C(F)(F)F)c1)c1ccc[nH]1 | 191 | 267 | 1.4 | 
3 | O=C(/C=C/c1ccc(F)c(Br)c1)c1ccc(Cl)s1 | 91 | 10.5 | 0.116 | 
4 | O=C(/C=C/c1ccc(C(F)(F)F)cc1)c1ccc[nH]1 |  | 3.81 | 0.83 | viability at 1 µM [2]: 77.5%; Activity [9]: 67%; viability at 10 µM [3]: 4.66%; CC50 [10]: 28.2 µM; Activity [4]: 85%; Activity [11]: 90%; Activity [8]: 32%
5 | C#CCN(C)[C@H](C)Cc1ccccc1 [SELEGILINE] |  |  |  | Activity [12]: 1.2%
6 | O=C(/C=C/c1ccc(C(F)(F)F)cc1)c1ccc(Cl)s1 | 57 | 7.56 | 0.133 | 
7 | C#CCN(C)Cc1ccccc1 [PARGYLINE] |  |  |  | Activity [12]: 1.2%
8 | O=C(/C=C/c1cccc(Cl)c1)c1ccc[nH]1 | 44 | 143 | 3.27 | 
9 | O=C(/C=C/c1ccc(F)c(Br)c1)c1ccc[nH]1 | 11 | 8.98 | 0.803 | viability at 1 µM [2]: 99.4%; viability at 10 µM [3]: 98%; Activity [4]: 81%; Activity [8]: 60%
10 | COc1ccc(C(=O)/C=C/c2ccc(Cl)s2)c(O)c1 | 54 | 9.99 | 0.185 | 
11 | COc1ccc(C(=O)/C=C/c2cccc(Cl)c2)cn1 | 46 | 15.3 | 0.33 | 
